Test results taken from the NIST ThermoML archive (doi:10.1021/acs.jced.8b01236).
± gives the expanded uncertainty stated by the source.

Test: xn = mol fraction of the nth substance listed
Details: Liquid; for binary diffusion coefficient: Open capillary; for mass density: Pycnometric method

Work on `CCCCCC[N+]1(C)CCCC1.O=S(=O)([N-]S(=O)(=O)C(F)(F)F)C(F)(F)F` + O=C=O yielded a binary diffusion coefficient (298.15 K, 100 kPa, x2 = 0.2) of 1.6e-10 m2/s, a binary diffusion coefficient (298.15 K, 1000 kPa, x2 = 0.2) of 2.4e-10 m2/s and a mass density (298.15 K, 1004 kPa, x2 = 0.236) of 1360 ± 9 kg/m3. It also gave a binary diffusion coefficient (298.15 K, 2000 kPa, x2 = 0.2) of 4e-10 m2/s, a mass density (298.15 K, 2030 kPa, x2 = 0.403) of 1354 ± 8 kg/m3 and a mass density (298.15 K, 2493 kPa, x2 = 0.484) of 1343 ± 6 kg/m3. The mass density (298.15 K, 3003 kPa, x2 = 0.531) was 1345 ± 6 kg/m3, the mass density (298.15 K, 3496 kPa, x2 = 0.577) was 1336 ± 8 kg/m3 and the mass density (298.15 K, 3999 kPa, x2 = 0.614) was 1324 ± 8 kg/m3. The mass density (298.15 K, 4496 kPa, x2 = 0.653) was 1308 ± 8 kg/m3, the mass density (298.15 K, 4998 kPa, x2 = 0.683) was 1299 ± 8 kg/m3 and the mass density (298.15 K, 5521 kPa, x2 = 0.716) was 1294 ± 10 kg/m3. It also gave a mass density (298.15 K, 5995 kPa, x2 = 0.738) of 1281 ± 12 kg/m3, a mass density (298.15 K, 6387 kPa, x2 = 0.751) of 1263 ± 22 kg/m3 and a mass density (318.15 K, 1005 kPa, x2 = 0.179) of 1346 ± 7 kg/m3. The mass density (318.15 K, 2021 kPa, x2 = 0.315) was 1332 ± 7 kg/m3, the mass density (318.15 K, 2513 kPa, x2 = 0.366) was 1315 ± 6 kg/m3 and the mass density (318.15 K, 2996 kPa, x2 = 0.416) was 1323 ± 6 kg/m3. For the same compound, the mass density (318.15 K, 4039 kPa, x2 = 0.515) was 1311 ± 8 kg/m3, the mass density (318.15 K, 6032 kPa, x2 = 0.632) was 1301 ± 12 kg/m3 and the mass density (318.15 K, 7998 kPa, x2 = 0.72) was 1291 ± 20 kg/m3. For the same compound, the mass density (318.15 K, 9884 kPa, x2 = 0.783) was 1345 ± 44 kg/m3, the binary diffusion coefficient (318.2 K, 100 kPa, x2 = 0.15) was 2.3e-10 m2/s and the binary diffusion coefficient (318.2 K, 1000 kPa, x2 = 0.15) was 3.8e-10 m2/s. It also gave a binary diffusion coefficient (318.2 K, 1800 kPa, x2 = 0.15) of 3.8e-10 m2/s, a mass density (338.15 K, 1001 kPa, x2 = 0.118) of 1307 ± 7 kg/m3 and a mass density (338.15 K, 2028 kPa, x2 = 0.264) of 1315 ± 7 kg/m3. The mass density (338.15 K, 2537 kPa, x2 = 0.293) was 1311 ± 7 kg/m3, the mass density (338.15 K, 3030 kPa, x2 = 0.346) was 1310 ± 6 kg/m3 and the mass density (338.15 K, 4022 kPa, x2 = 0.443) was 1313 ± 6 kg/m3. The mass density (338.15 K, 5027 kPa, x2 = 0.508) was 1311 ± 8 kg/m3, the mass density (338.15 K, 6014 kPa, x2 = 0.561) was 1307 ± 8 kg/m3 and the mass density (338.15 K, 7501 kPa, x2 = 0.637) was 1310 ± 8 kg/m3. For the same compound, the mass density (338.15 K, 10006 kPa, x2 = 0.706) was 1319 ± 16 kg/m3, the mass density (338.15 K, 12478 kPa, x2 = 0.752) was 1325 ± 18 kg/m3 and the mass density (338.15 K, 14944 kPa, x2 = 0.771) was 1341 ± 12 kg/m3.

Work on `CCCC[N+]1(C)CCCC1.O=S(=O)([N-]S(=O)(=O)C(F)(F)F)C(F)(F)F` + O=C=O yielded a binary diffusion coefficient (298.15 K, 100 kPa, x2 = 0.2) of 1.3e-10 m2/s, a mass density (298.15 K, 996 kPa, x2 = 0.199) of 1385 ± 7 kg/m3 and a binary diffusion coefficient (298.15 K, 1000 kPa, x2 = 0.2) of 1.6e-10 m2/s. It also gave a mass density (298.15 K, 1997 kPa, x2 = 0.379) of 1377 ± 6 kg/m3, a binary diffusion coefficient (298.15 K, 2000 kPa, x2 = 0.2) of 3e-10 m2/s and a mass density (298.15 K, 2502 kPa, x2 = 0.449) of 1371 ± 6 kg/m3. The mass density (298.15 K, 3031 kPa, x2 = 0.51) was 1361 ± 6 kg/m3, the mass density (298.15 K, 3511 kPa, x2 = 0.559) was 1351 ± 6 kg/m3 and the mass density (298.15 K, 4013 kPa, x2 = 0.602) was 1348 ± 6 kg/m3. It also gave a mass density (298.15 K, 4504 kPa, x2 = 0.638) of 1345 ± 6 kg/m3, a mass density (298.15 K, 5002 kPa, x2 = 0.674) of 1339 ± 6 kg/m3 and a mass density (298.15 K, 5512 kPa, x2 = 0.702) of 1336 ± 8 kg/m3. The mass density (298.15 K, 6040 kPa, x2 = 0.728) was 1326 ± 10 kg/m3, the mass density (298.15 K, 6378 kPa, x2 = 0.745) was 1330 ± 18 kg/m3 and the mass density (318.15 K, 1005 kPa, x2 = 0.156) was 1387 ± 7 kg/m3. The mass density (318.15 K, 2046 kPa, x2 = 0.311) was 1391 ± 7 kg/m3, the mass density (318.15 K, 3019 kPa, x2 = 0.436) was 1389 ± 6 kg/m3 and the mass density (318.15 K, 4000 kPa, x2 = 0.528) was 1397 ± 8 kg/m3. The mass density (318.15 K, 6033 kPa, x2 = 0.638) was 1380 ± 12 kg/m3, the mass density (318.15 K, 8002 kPa, x2 = 0.714) was 1378 ± 18 kg/m3 and the binary diffusion coefficient (318.2 K, 100 kPa, x2 = 0.15) was 2.2e-10 m2/s. For the same compound, the binary diffusion coefficient (318.2 K, 1000 kPa, x2 = 0.15) was 2.9e-10 m2/s, the binary diffusion coefficient (318.2 K, 2000 kPa, x2 = 0.15) was 3.3e-10 m2/s and the mass density (338.15 K, 1019 kPa, x2 = 0.123) was 1368 ± 7 kg/m3. It also gave a mass density (338.15 K, 2011 kPa, x2 = 0.23) of 1358 ± 28 kg/m3, a mass density (338.15 K, 2520 kPa, x2 = 0.301) of 1369 ± 6 kg/m3 and a mass density (338.15 K, 3004 kPa, x2 = 0.345) of 1369 ± 6 kg/m3. The mass density (338.15 K, 4000 kPa, x2 = 0.435) was 1371 ± 6 kg/m3, the mass density (338.15 K, 5007 kPa, x2 = 0.495) was 1380 ± 8 kg/m3 and the mass density (338.15 K, 6020 kPa, x2 = 0.537) was 1357 ± 8 kg/m3. The mass density (338.15 K, 7504 kPa, x2 = 0.606) was 1348 ± 8 kg/m3, the mass density (338.15 K, 10012 kPa, x2 = 0.682) was 1349 ± 16 kg/m3 and the mass density (338.15 K, 12486 kPa, x2 = 0.712) was 1384 ± 18 kg/m3. It also gave a mass density (338.15 K, 14895 kPa, x2 = 0.728) of 1387 ± 12 kg/m3.

For `CCC[N+]1(C)CCCC1.O=S(=O)([N-]S(=O)(=O)C(F)(F)F)C(F)(F)F` + O=C=O, the binary diffusion coefficient (298.15 K, 100 kPa, x2 = 0.2) was 1.3e-10 m2/s, the binary diffusion coefficient (298.15 K, 1000 kPa, x2 = 0.2) was 1.8e-10 m2/s and the mass density (298.15 K, 1009 kPa, x2 = 0.236) was 1464 ± 11 kg/m3. The binary diffusion coefficient (298.15 K, 2000 kPa, x2 = 0.2) was 2.4e-10 m2/s, the mass density (298.15 K, 2028 kPa, x2 = 0.389) was 1420 ± 17 kg/m3 and the mass density (298.15 K, 3030 kPa, x2 = 0.503) was 1411 ± 12 kg/m3. For the same compound, the mass density (298.15 K, 3507 kPa, x2 = 0.553) was 1408 ± 9 kg/m3, the mass density (298.15 K, 4038 kPa, x2 = 0.598) was 1401 ± 6 kg/m3 and the mass density (298.15 K, 4517 kPa, x2 = 0.632) was 1390 ± 8 kg/m3. For the same compound, the mass density (298.15 K, 5014 kPa, x2 = 0.661) was 1386 ± 9 kg/m3, the mass density (298.15 K, 5505 kPa, x2 = 0.688) was 1385 ± 15 kg/m3 and the mass density (298.15 K, 6003 kPa, x2 = 0.709) was 1373 ± 12 kg/m3. For the same compound, the mass density (298.15 K, 6397 kPa, x2 = 0.725) was 1363 ± 22 kg/m3, the mass density (318.15 K, 1055 kPa, x2 = 0.185) was 1441 ± 7 kg/m3 and the mass density (318.15 K, 2223 kPa, x2 = 0.323) was 1437 ± 6 kg/m3. For the same compound, the mass density (318.15 K, 4005 kPa, x2 = 0.471) was 1407 ± 7 kg/m3, the mass density (318.15 K, 5004 kPa, x2 = 0.528) was 1392 ± 7 kg/m3 and the mass density (318.15 K, 6004 kPa, x2 = 0.575) was 1374 ± 8 kg/m3. It also gave a mass density (318.15 K, 7010 kPa, x2 = 0.621) of 1356 ± 9 kg/m3, a mass density (318.15 K, 8010 kPa, x2 = 0.664) of 1366 ± 10 kg/m3 and a mass density (318.15 K, 16527 kPa, x2 = 0.731) of 1385 ± 8 kg/m3. The mass density (318.15 K, 19966 kPa, x2 = 0.751) was 1406 ± 7 kg/m3, the binary diffusion coefficient (318.2 K, 100 kPa, x2 = 0.15) was 2.7e-10 m2/s and the binary diffusion coefficient (318.2 K, 1000 kPa, x2 = 0.15) was 3e-10 m2/s. The binary diffusion coefficient (318.2 K, 2000 kPa, x2 = 0.15) was 3.7e-10 m2/s, the mass density (338.15 K, 1009 kPa, x2 = 0.065) was 1400 ± 10 kg/m3 and the mass density (338.15 K, 2002 kPa, x2 = 0.198) was 1405 ± 9 kg/m3. For the same compound, the mass density (338.15 K, 2508 kPa, x2 = 0.249) was 1393 ± 9 kg/m3, the mass density (338.15 K, 3007 kPa, x2 = 0.328) was 1408 ± 12 kg/m3 and the mass density (338.15 K, 4008 kPa, x2 = 0.413) was 1404 ± 14 kg/m3. It also gave a mass density (338.15 K, 4999 kPa, x2 = 0.474) of 1427 ± 13 kg/m3, a mass density (338.15 K, 6006 kPa, x2 = 0.536) of 1430 ± 6 kg/m3 and a mass density (338.15 K, 7503 kPa, x2 = 0.612) of 1435 ± 10 kg/m3.
